# Reference: patent US20100303887A1, “DHA and PEDF, a Therapeutic Composition for Nerve and Retinal Pigment Epithelial Cells” (priority 2007, published 2010)
# B1: CNTF: ciliary neurotrophic factor, a neurotrophin (protein, UniProt P26441 1-200, looked up)
# Ciliary neurotrophic factor: MAFTEHSPLTPHRRDLCSRSIWLARKIRSDLTALTESYVKHQGLNKNINLDSADGMPVASTDQWSELTEAERLQENLQAYRTFHVLLARLLEDQQVHFTPTEGDFHQAIHTLLLQVAAFAYQIEELMILLEYKIPRNEADGMPINVGDGGLFEKKLWGLKVLQELSQWTVRSIHDLRFISSHQTGIPARGSHYIANNKKM
# Experiments:
# NPD1 synthesis = NPD1 synthesis and release from polarized primary human RPE cell monolayers (lipidomic analysis); format: cell-based
# Description: Human RPE cells. Cultures of retinal pigment epithelial (RPE) cells were prepared. RPE cells were seeded onto Millicell-HA culture plate inserts (Millipore, Bradford, Mass.), placed in 24-well plates, and allowed to reach confluence. Consent for use of tissue for research was obtained in compliance with Federal and State law and institutional regulations. Cultures were maintained in Chee's essential replacement medium until the experiments were performed as described in J. Hu and D. Bok (2001) Mol Vis 7:14-19. The medium includes Eagle's minimal essential medium with calcium (MEM, Irvine Scientific, Irvine, Calif.), 1% heat-inactivated calf serum (JRH Bioscience, Lennexo, Kans.), amino acid supplements, and 1% bovine retinal extract. The Millicell-HA filter inserts allow separate manipulation of the culture media bathing the apical and basal surfaces of the RPE monolayer and measurement of the transepithelial resistance (TER), which provides a measure of cell differentiation and confluency. Cultures were used for experiments once they developed a TER of at least 400 Ω·cm^2, as measured by an Epithelial Volt-ohmmeter (EVOM, World Precision Instruments, New Haven, Conn.).
# Exposure of RPE cells to growth factors. […] […] The lower chamber was filled with 500 μl media (bathing the basal cell monolayer surface) containing 0.1% HSA. Cells were incubated for 72 hours, then apical and basal media were removed and collected for analysis. After allowing the cells to rest for at least 72 hours on fresh media, the experiments were repeated.
# Lipidomic analysis. Human RPE primary cell cultures or ARPE-19 cells were separated from culture media and washed with 1 ml PBS. After addition of 1 ml methanol, cells were scraped from plates or millicell membranes and collected for lipid extraction. Media was spun-down to separate cell debris, then 350 μl were collected in 1 ml of cold chloroform:methanol (1:1). Protein precipitates were then separated by centrifugation at 1500×g (5 min, 4° C.). Lipid extracts were collected, and kept under nitrogen at −80° C. until solid-phase purification; extracts were pre-equilibrated at pH 3.0 in 10% methanol/water, then loaded to 500 mg C18 columns (Varian, Inc., Palo Alto, Calif.), and eluted with 1% methanol/ethyl acetate. Eluates were concentrated on a N2 stream evaporator. Samples were loaded to a liquid chromatograph-tandem mass spectrometer (LC-TSQ Quantum, Thermo-Finnigan; Thermo Fisher Scientific, Waltham, Mass.) installed with a Biobasic-AX column (Thermo-Hypersil-Keystone, Thermo Fisher Scientific, Waltham, Mass.) (100 mm\2.1 mm, 5-μm particle sizes), and eluted in a linear gradient [100% solution A (40:60:0.01 methanol/water/acetic acid pH 4.5) to 100% solution B (99.99:0.01 methanol/acetic acid)], at a flow rate of 300 μl/min for 30 minutes. LC effluents were diverted to an electro-spray-ionization probe (ESI) on a TSQ Quantum (Thermo-Finnigan, Thermo Fisher Scientific, Waltham, Mass.) triple quadrupole mass spectrometer. NPD1 and resolving D1 were obtained by biogenic synthesis as described in N. G. Bazan, D. L. Birkle, and T. S. Reddy (1984) Biochem Biophys Res Commun. 125:741-74, and V. L. Marcheselli et al. (2003) J. Biol. Chem. 278:43807-43817. Erratum in: (2003) J Biol Chem 278:51974. Other lipid standards (Cayman Chem. Ann Arbor, Mich.) were used for tuning and optimization and to create calibration curves. The instrument was set on full-scan mode, to detect parent ions, and selected reaction mode (SRM) for quantitative analysis, to detect product ions, simultaneously. The selected parent/product ions (m/z) and collision energy (v) obtained by running on negative ion detection mode were: 359.2/153.1/20 for NPD1, 343.2/281.2/18 for resolving D1, 351.2/195.0/22 for 20HO-LTB4 (used as internal standard), 327.2/283.3/16 for DHA, 311.3/267.3/20 Arachidonic Acid-d8 (used as internal standard, IS).
# Neurotrophins activated NPD1 synthesis in cultured primary human RPE cells. […]
# ARPE-19 cells [1] = assay: A2E-induced apoptosis in ARPE-19 cells (Hoechst 33258 staining); format: cell-based, human
# Description: Hoechst Staining. ARPE-19 cells were incubated with 2 μM Hoechst reagent dissolved in Lock's solution (Promega Corporation, Madison. Wis.) at 37° C. for 45 minutes before imaging. Cells were washed once with PBS and photographed using a Nikon DIAPHOT 200 microscope with fluorescence optics. Images were recorded by a Hamamatsu Color Chilled 3CCD camera and PHOTOSHOP 5.0 software (Adobe Systems, Mountain View, Calif.).
# (§1) A2E, a lipofusin component, accumulates in the RPE during aging, and, in an exaggerated manner, in age-related macular degeneration (AMD) and Stargardt macular dystrophy (an early onset form of AMD). As a consequence, RPE apoptosis precedes the demise of photoreceptors. […] Seventy-two (72) hours after plating, ARPE-19 cells were serum starved for 4 hours. A2E (20 μM) was added in the presence of 430 nM light and O2 (see Materials and Methods). Other cells were exposed instead to H2O2/TNFα. NPD1 was added prior to, or at different times after, A2E or H2O2/TNFα, up to 12 hours. Time of NPD1 addition is indicated by black arrows on FIG. 1A. Hoechst 33258 was analyzed at 15 hours. FIG. 1B illustrates the appearance of Hoechst 33258 positive cells upon exposure to A2E and the effect of NPD1. FIG. 1C is similar to FIG. 1B, except that H2O2/TNFα was used to trigger oxidative stress. […]
# ARPE-19 cells [2] = assay: Serum starvation/H2O2/TNFα oxidative stress-induced apoptosis in ARPE-19 cells (Hoechst staining); format: cell-based, human; details: NPD1 added eight hours after triggering oxidative stress
# Description: Exposure of ARPE-19 cells to growth factors. Cells at 75-80% confluence (72 hr growth in DMEM/F12+10% FBS) were serum-starved for 2 hr before exposure to growth factors. The serum-starved cells were treated with TNF-α (Sigma-Aldrich Corporation, St. Louis, Mo.) (10 ng/ml) and H2O2 (600 μM) to induce oxidative stress and challenged with increasing concentrations (10, 30, 50 nM) and PEDF (Chemicon International, Temecula, Calif.) (50 ng/ml) simultaneously with oxidative stress for 4 hr before harvesting for protein analysis. Cell extracts were made and protein concentrations were adjusted by Bio-Rad protein reagent and used for Western-blot analysis. […] Cells were analyzed to detect Hoechst-positive apoptotic cells.
# Hoechst Staining. […] Cells were washed once with PBS and photographed using a Nikon DIAPHOT 200 microscope with fluorescence optics. Images were recorded by a Hamamatsu Color Chilled 3CCD camera and PHOTOSHOP 5.0 software (Adobe Systems, Mountain View, Calif.).
# A2E, a lipofusin component, accumulates in the RPE during aging, and, in an exaggerated manner, in age-related macular degeneration (AMD) and Stargardt macular dystrophy (an early onset form of AMD). […] Hoechst 33258 was analyzed at 15 hours. […]
# ARPE-19 cells [3] = assay: Cell viability using calcein (AM), ethidium homodimer and phase contrast microscopy after oxidative stress; format: cell-based, human; details: added up to 15 hr after triggering oxidative stress; data not shown
# Description: A2E-triggered oxidative stress precedes cell death. Since oxidative stress and/or inflammatory signaling are involved in early stages of retinal degenerations, oxidative stress, triggered by another experimental condition, serum starvation/H2O2/TNFα was explored (FIG. 1C). NPD1 also exerted protection in this experimental condition. […] What was surprising was the extended time window. […] (Data not shown)
# A2E oxiranes (epoxides) = assay: A2E conversion to A2E oxiranes (epoxides) in ARPE-19 cells, LC-MS-MS; format: cell-based, human; details: NPD1 50 nM; light and oxygen
# Description: as §1, with “stress. FIG. 1D depicts the formation of oxiranes (epoxides) upon exposure of ARPE-19 cells to A2E in the presence of O2 and 430 nM light for 15 minutes followed by 60 minutes incubation in the dark.” for “stress.”
# To study the mechanism of NPD1-mediated RPE protection against A2E oxidative stress, the possibility that A2E conversion to A2E oxiranes (epoxides) may be the target of NPD1 was tested. […] Multiple oxiranes (epoxides), up to nonaoxiranes, were detected by MS-MS in ARPE-19 cells exposed to light and oxygen (FIG. 1D).
# caspase-3 = assay: Caspase-3 cleavage in A2E-exposed ARPE-19 cells (Western blot); format: cell-based, human; details: NPD1 50 nM
# Description: (§2) Analysis of Bcl-2 and caspase-3 cleavage. Bcl-2 protein and caspase-3 cleavage were analyzed by Western-blot analysis. Also, ARPE-19 cells, stably transfected with a lentivirus construct containing the […] caspase 3 cleavage sequence, were used. In short, 15-20 μg equivalent of each cell extract were subjected to electrophoresis on an 8-16% gel (Invitrogen Corporation, Carlsbad, Calif.) at 125 volts for 2 hr. The proteins were transferred to nitrocellulose membranes at 30 volts for 70 minutes at 4° C. The membranes were probed with primary antibodies against Bcl-2 (Santa Cruz Biotechnology, Inc., Santa Cruz, Calif.) and cleaved caspase-3 (Asp-175) (Cell Signaling) at room temperature and treated for 20 minutes with the secondary antibody, goat anti-rabbit IgG: horseradish peroxidase, and horseradish peroxidase-conjugated anti-biotin antibody, then proteins were detected by using an ECL kit (Amersham Biosciences, Buckinghamshire, United Kingdom).
# (§3) Caspase cleavage and Bcl-2 changes triggered by A2E are restored by NPD1. […] NPD1 (50 nM) counteracted the effect of A2E (see Materials and Methods). Data is an average of relative density detection±SEM of six individuals. […] These findings indicate that NPD1 protects the RPE against A2E-induced apoptosis at the pre-mitochondrial level of the apoptosis cascade by altering Bcl-2 balance. […]
# Bax = Bax expression in A2E-exposed ARPE-19 cells (Western blot); format: cell-based, human; details: NPD1 50 nM
# Bcl-2 = Bcl-2 expression in A2E-exposed ARPE-19 cells (Western blot); format: cell-based, human; details: NPD1 50 nM
# Description: as §2, §3
# [4] = increasing concentrations, 72 hr
molecule,measurement,setting,value
"CC/C=C\C/C=C\C/C=C\C/C=C\C/C=C\C/C=C\CCC(=O)O [DHA, docosahexaenoic acid]",Cellular NPD1 content (percentile distribution of total NPD1),NPD1 synthesis; 200 nM DHA (25% when no DHA was added),7%
same,DHA concentration at which NPD1 in the apical media reaches a maximum,NPD1 synthesis; DHA treatment on the apical media,50 nM
"CC/C=C\C[C@H](O)\C=C/C=C/C=C/[C@H](O)C/C=C\C/C=C\CCC(=O)O [NPD1, Neuroprotectin D1]",Cytoprotection against A2E-induced apoptosis (Hoechst 33258 positive cells),"ARPE-19 cells [1]; A2E 20 μM, 430 nm light and O2, Hoechst at 15 hours",cytoprotective
same,"Protection against A2E-induced apoptosis, delayed addition",ARPE-19 cells [1]; NPD1 50 nM added 6 hours after A2E,ensures protection
same,"Protection against H2O2/TNFα oxidative stress-induced apoptosis, delayed addition",ARPE-19 cells [2],resulted in protection
same,"Protection of cell viability (calcein AM, ethidium homodimer, phase contrast)",ARPE-19 cells [3],showed protection
same,Effect on A2E conversion to A2E oxiranes (epoxides),A2E oxiranes (epoxides),did not affect this conversion
same,Effect on A2E-enhanced caspase-3 cleavage,caspase-3,counteracted A2E-enhanced caspase-3 cleavage
same,Effect on Bax expression,Bax,showed a tendency to decrease Bax expression
same,Effect on Bcl-2 protein expression,Bcl-2,increased Bcl-2 protein expression
"CCCCC/C=C\C/C=C\C/C=C\C/C=C\CCCC(=O)O [arachidonic acid, reference compound]","NPD1 synthesis and release, fatty acid added to the apical medium","NPD1 synthesis; 72 hr, DHA 0 to 200 nM, arachidonic acid under similar conditions",failed to induce NPD1 synthesis
same,"NPD1 synthesis, arachidonic acid in the presence of PEDF",NPD1 synthesis; added arachidonic acid with PEDF,did not stimulate NPD1 synthesis
B1,"NPD1 release, neurotrophin added to the apical medium",NPD1 synthesis; [4],concentration-dependent increases in NPD1 release only on the apical side
same,"NPD1 release, neurotrophin added to the basal medium",NPD1 synthesis; [4],much less NPD1 release on the apical side
